Measured values taken from US7553969B1, “Substituted phenethylamine derivatives” (Chugai Seiyaku Kabushiki Kaisha, priority 1999, dated 2009).
pIC50: −log10 of the molar value. Where a SMILES comes first, the peptide text is derived from it. [ ]: non-standard residue; d: D form. The star is where a group is joined. NMeTyr(3-tBu) = CN[C@@H](Cc1ccc(O)c(C(C)(C)C)c1)C(=O)O; Tyr(3-tBu) = CC(C)(C)c1cc(C[C@H](N)C(=O)O)ccc1O; Phe(3,4-F2) = N[C@@H](Cc1ccc(F)c(F)c1)C(=O)O; NMePhe(4-F) = CN[C@@H](Cc1ccc(F)cc1)C(=O)O; Phe(4-F) = N[C@@H](Cc1ccc(F)cc1)C(=O)O; NMetBuAla = CN[C@@H](CC(C)(C)C)C(=O)O; NMe2Thi = CN[C@@H](Cc1cccs1)C(=O)O; NMeGly(cPr) = CN[C@H](C(=O)O)C1CC1; NMeChg = CN[C@H](C(=O)O)C1CCCCC1; NMeF = CN[C@@H](Cc1ccccc1)C(=O)O; NMePhg = CN[C@H](C(=O)O)c1ccccc1; NMeL = CN[C@@H](CC(C)C)C(=O)O; NMeV = CN[C@H](C(=O)O)C(C)C; Morpholide = C1CN(*)CCO1; NHPr = CCCN*

Legend:
[1] = test system: specimen of longitudinal muscle in the duodenum extracted from a rabbit (motilin-induced contraction); assay: Action on the motilin-induced contraction of a specimen of longitudinal muscle in the duodenum extracted from a rabbit; settings: Oryctolagus cuniculus, organ bath, Krebs solution 28° C., read-out: Contraction suppressing test, pA2 (converted)
Protocol: Action on the Contraction of a Specimen of Longitudinal Muscle in the Duodenum Extracted from a Rabbit
The action on the motilin-induced contraction of a specimen of longitudinal muscle in the duodenum extracted from a rabbit was investigated by the following method. A duodenum specimen (5×15 mm) extracted from a slaughtered rabbit was suspended in an organ bath (10 ml) such that the longitudinal muscle would run vertically; the bath was filled with a Krebs solution kept at 28° C. A mixed gas (95% O2 and 5% CO2) was continuously bubbled into the Krebs solution and the contraction of the duodenum specimen was recorded isotonically (with a 1-g load) via an isotonic transducer (ME-3407, ME Commercial, Tokyo, Japan). The degree of contraction was expressed in relative values, with the contraction by acetylcholine at a dose of 10^−4 M being taken as 100%. The activity of the compound was calculated as pA2 value indicating its effect on the dose-dependent muscle contraction by the motilin put into the organ bath.

[2] = molecular target: T1, motilin receptor (Oryctolagus cuniculus, UniProt G1T803); assay: Motilin receptor binding test (125I motilin, rabbit duodenum protein sample); settings: 125I motilin 25 pM, concentration reducing specific binding by 50%
T1 construct: homogenized in 50 mM Tris buffer to prepare a protein sample; from tissue; host or cells: rabbit duodenum homogenate (mucous membrane separated)
T1 sequence (G1T803 1-400): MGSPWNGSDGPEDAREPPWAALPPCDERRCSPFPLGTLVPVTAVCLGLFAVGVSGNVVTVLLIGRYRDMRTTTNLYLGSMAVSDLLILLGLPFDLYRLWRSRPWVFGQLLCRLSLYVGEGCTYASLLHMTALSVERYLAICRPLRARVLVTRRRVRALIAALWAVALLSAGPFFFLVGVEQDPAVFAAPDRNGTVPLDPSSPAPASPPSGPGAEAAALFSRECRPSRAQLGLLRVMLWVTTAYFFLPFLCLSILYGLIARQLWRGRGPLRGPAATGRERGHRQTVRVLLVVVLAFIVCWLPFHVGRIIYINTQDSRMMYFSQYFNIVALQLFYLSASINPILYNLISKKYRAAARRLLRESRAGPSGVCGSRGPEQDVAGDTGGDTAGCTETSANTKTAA
Protocol: Motilin receptor binding test
A motilin receptor binding test was conducted in the following manner [Vantrappen et al., Regul. Peptides, 15, 143 (1986)]. The duodenum was extracted from a slaughtered rabbit, had the mucous membrane separated and homogenized in 50 mM Tris buffer to prepare a protein sample. The protein sample was incubated together with ^125I motilin 25 pM and thereafter the radioactivity bound to the protein was measured. Specific binding was defined as the difference between the radioactivity in the case of adding a great excess amount of motilin (10^−7 M) and that in the case of no adding. The activity of the compound was expressed by IC50 (in nM), as the concentration sufficient to reduce the specific binding by 50%.

SMILES | pIC50 [2] | Kb [1]
CN[C@@H](Cc1ccc(F)cc1)C(=O)N(C)[C@H](C(=O)N(C)[C@@H](Cc1ccc(O)c(C(C)(C)C)c1)C(=O)NCO)C(C)C [Example 125, N-Me-Phe(4-F)-N-Me-Val-N-Me-Tyr(3-tBu)-NHCH2OH] | 9.00 | 1 nM
CCN[C@@H](Cc1ccc(F)cc1)C(=O)N(C)[C@H](C(=O)N[C@@H](Cc1ccc(O)c(C(C)(C)C)c1)C(=O)NCO)C(C)C [Example 124, N-Et-Phe(4-F)-N-Me-Val-Tyr(3-tBu)-NHCH2OH] | 9.01 | 0.794 nM
CC(C)[C@@H](C(=O)N[C@H](CNC(N)=O)Cc1ccc(O)c(C(C)(C)C)c1)N(C)C(=O)[C@@H](N)Cc1ccc(F)cc1 [Example 9, N-(2-(2-((2-amino-3-(4-fluorophenyl)propionyl)-N-methylamino)-3-methylbutyrylamino)-3-(3-tBu-4-hydroxyphenyl)propyl)urea] | 9.00 | 1 nM
CC(C)C[C@@H](C(=O)N(C)[C@@H](Cc1ccc(O)c(C(C)(C)C)c1)C(N)=O)N(C)C(=O)[C@@H](N)Cc1ccc(F)cc1 [Example 144, Phe(4-F)-N-Me-Leu-N-Me-Tyr(3-tBu)-NH2] (H-[Phe(4-F)]-[NMeL]-[NMeTyr(3-tBu)]-NH2) | 8.70 | 3.16 nM
CN(C(=O)[C@@H](N)Cc1ccc(F)cc1)[C@H](C(=O)N(C)[C@@H](Cc1ccc(O)c(C(C)(C)C)c1)C(N)=O)c1ccccc1 [Example 166, Phe(4-F)-N-Me-Phg-N-Me-Tyr(3-tBu)-NH2] (H-[Phe(4-F)]-[NMePhg]-[NMeTyr(3-tBu)]-NH2) | 8.74 | 0.158 nM
CNC(=O)[C@H](Cc1ccc(O)c(C(C)(C)C)c1)N(C)C(=O)[C@H](C(C)C)N(C)C(=O)[C@@H](N)Cc1ccc(F)cc1 [Example 36, Phe(4-F)-N-Me-Val-N-Me-Tyr(3-tBu)-NHMe] (H-[Phe(4-F)]-[NMeV]-[NMeTyr(3-tBu)]-NHMe) | 8.64 | 1.58 nM
CC(C)[C@@H](C(=O)N(C)[C@@H](Cc1ccc(O)c(C(C)(C)C)c1)C(=O)N1CCN(CC(=O)O)CC1)N(C)C(=O)[C@@H](N)Cc1ccc(F)cc1 [Example 136, 2-[4-((2S)-2-{(2S)-2-[(2S)-2-amino-3-(4-fluorophenyl)-N-methylpropanolyamino)-3,N-dimethylbutanoylamino}-3-[3-(tert-butyl)-4-hydroxyphenyl]propanoyl)piperazinyl]acetic acid] | 8.17 | 25.1 nM
CCN(C(=O)[C@H](C(C)C)N(C)C(=O)[C@@H](N)Cc1ccc(F)cc1)[C@@H](Cc1ccc(O)c(C(C)(C)C)c1)C(N)=O [Example 39, Phe(4-F)-N-Me-Val-N-Et-Tyr(3-tBu)-NH2] | 8.70 | 2 nM
CN(C(=O)[C@@H](N)Cc1ccc(F)cc1)[C@@H](Cc1cccs1)C(=O)N(C)[C@@H](Cc1ccc(O)c(C(C)(C)C)c1)C(N)=O [Example 163, Phe(4-F)-N-Me-Ala(β-2-thienyl)-N-Me-Tyr(3-tBu)-NH2] (H-[Phe(4-F)]-[NMe2Thi]-[NMeTyr(3-tBu)]-NH2) | 8.62 | 15.8 nM
CCN[C@@H](Cc1ccc(F)cc1)C(=O)N(C)[C@H](C(=O)N(CC)[C@@H](Cc1ccc(O)c(C(C)(C)C)c1)C(=O)NC)C(C)C [Example 44, N-Et-Phe(4-F)-N-Me-Val-N-Et-Tyr(3-tBu)-NHMe] | 8.44 | 3.16 nM
CC(C)[C@@H](C(=O)N(C)[C@@H](Cc1ccc(O)c(C(C)(C)C)c1)C(=O)N1CCOCC1)N(C)C(=O)[C@@H](N)Cc1ccc(F)cc1 [Example 133, (2S)-2-[(2S)-2-amino-3-(4-fluorophenyl)-N-methylpropanolyamino]-N-((1S)-1-{[3-(tert-butyl)-4-hydroxyphenyl]methyl}-2-morpholin-4-yl-2-oxoethyl)-3-methyl-N-methylbutanamide] (H-[Phe(4-F)]-[NMeV]-[NMeTyr(3-tBu)]-Morpholide) | 8.96 | 6.31 nM
CN(C(=O)[C@@H](N)Cc1ccc(F)cc1)[C@@H](CC(C)(C)C)C(=O)N(C)[C@@H](Cc1ccc(O)c(C(C)(C)C)c1)C(N)=O [Example 148, Phe(4-F)-N-Me-Leu(γ-Me)-N-Me-Tyr(3-tBu)-NH2] (H-[Phe(4-F)]-[NMetBuAla]-[NMeTyr(3-tBu)]-NH2) | 8.39 | 3.98 nM
CN(C(=O)[C@@H](N)Cc1ccc(F)cc1)[C@H](C(=O)N(C)[C@@H](Cc1ccc(O)c(C(C)(C)C)c1)C(N)=O)C1CC1 [Example 165, Phe(4-F)-N-Me-Ala(β-c-Pr)-N-Me-Tyr(3-tBu)-NH2] (H-[Phe(4-F)]-[NMeGly(cPr)]-[NMeTyr(3-tBu)]-NH2) | 8.55 | 6.31 nM
CN(C(=O)[C@@H](N)Cc1ccc(F)cc1)[C@@H](Cc1ccccc1)C(=O)N(C)[C@@H](Cc1ccc(O)c(C(C)(C)C)c1)C(N)=O [Example 155, Phe(4-F)-N-Me-Phe-N-Me-Tyr(3-tBu)-NH2] (H-[Phe(4-F)]-[NMeF]-[NMeTyr(3-tBu)]-NH2) | 8.60 | 7.94 nM
CC(C)[C@@H](C(=O)N(C)[C@@H](Cc1ccc(O)c(C(C)(C)C)c1)C(N)=O)N(C)C(=O)[C@@H](N)Cc1ccc(F)c(F)c1 [Example 3, Phe(3,4-F2)-N-Me-Val-N-Me-Tyr(3-tBu)-NH2] (H-[Phe(3,4-F2)]-[NMeV]-[NMeTyr(3-tBu)]-NH2) | 8.82 | 2 nM
CCN(C(=O)[C@H](C(C)C)N(C)C(=O)[C@@H](N)Cc1ccc(F)cc1)[C@@H](Cc1ccc(O)c(C(C)(C)C)c1)C(=O)NC [Example 42, Phe(4-F)-N-Me-Val-N-Et-Tyr(3-tBu)-NHMe] | 8.92 | 5.01 nM
CC(C)[C@@H](C(=O)N[C@@H](Cc1ccc(O)c(C(C)(C)C)c1)c1nnc[nH]1)N(C)C(=O)[C@@H](N)Cc1ccc(F)cc1 [Example 24, 2-((2-amino-3-(4-fluorophenyl)propionyl)-N-methylamino)-3-methylbutyric acid 2-(3-t-butyl-4-hydroxyphenyl)-1-(1,3,4-triazol-2-yl)ethylamide] | 9.03 | 0.794 nM

Now those with a higher pIC50 [2], led by results:

pIC50 [2] | SMILES | Kb [1]
9.05 | CC(C)[C@@H](C(=O)N(C)[C@@H](Cc1ccc(O)c(C(C)(C)C)c1)C(N)=O)N(C)C(=O)[C@@H](N)Cc1ccc(F)cc1 [Example 1, Phe(4-F)-N-Me-Val-N-Me-Tyr(3-tBu)-NH2] (H-[Phe(4-F)]-[NMeV]-[NMeTyr(3-tBu)]-NH2) | 1.58 nM
9.07 | CCNC(=O)[C@H](Cc1ccc(O)c(C(C)(C)C)c1)NC(=O)[C@H](C(C)C)N(C)C(=O)[C@H](Cc1ccc(F)cc1)NCC [Example 103, N-Et-Phe(4-F)-N-Me-Val-Tyr(3-tBu)-NHEt] | 1.26 nM
9.07 | CC(C)[C@@H](C(=O)N(C)[C@@H](Cc1ccc(O)c(C(C)(C)C)c1)C(=O)NCO)N(C)C(=O)[C@@H](N)Cc1ccc(F)cc1 [Example 132, Phe(4-F)-N-Me-Val-N-Me-Tyr(3-tBu)-NHCH2OH] | 1.26 nM
9.12 | CNC(=O)[C@H](Cc1ccc(O)c(C(C)(C)C)c1)NC(=O)[C@H](C(C)C)N(C)C(=O)[C@H](Cc1ccc(F)cc1)NC [Example 32, N-Me-Phe(4-F)-N-Me-Val-Tyr(3-tBu)-NHMe] (H-[NMePhe(4-F)]-[NMeV]-[Tyr(3-tBu)]-NHMe) | 0.794 nM
9.40 | CCCNC(=O)[C@H](Cc1ccc(O)c(C(C)(C)C)c1)NC(=O)[C@H](C(C)C)N(C)C(=O)[C@@H](N)Cc1ccc(F)cc1 [Example 119, Phe(4-F)-N-Me-Val-Tyr(3-tBu)-NH-n-Pr] (H-[Phe(4-F)]-[NMeV]-[Tyr(3-tBu)]-NHPr) | 0.398 nM
9.44 | CN(C(=O)[C@@H](N)Cc1ccc(F)cc1)[C@H](C(=O)N(C)[C@@H](Cc1ccc(O)c(C(C)(C)C)c1)C(N)=O)C1CCCCC1 [Example 151, Phe(4-F)-N-Me-Chg-N-Me-Tyr(3-tBu)-NH2] (H-[Phe(4-F)]-[NMeChg]-[NMeTyr(3-tBu)]-NH2) | 6.31 nM
9.49 | CCNC(=O)[C@H](Cc1ccc(O)c(C(C)(C)C)c1)N(C)C(=O)[C@H](C(C)C)N(C)C(=O)[C@@H](N)Cc1ccc(F)cc1 [Example 104, Phe(4-F)-N-Me-Val-N-Me-Tyr(3-tBu)-NHEt] (H-[Phe(4-F)]-[NMeV]-[NMeTyr(3-tBu)]-NHEt) | 0.794 nM
9.51 | CCNC(=O)[C@H](Cc1ccc(O)c(C(C)(C)C)c1)NC(=O)[C@H](C(C)C)N(C)C(=O)[C@H](Cc1ccc(F)cc1)NC [Example 102, N-Me-Phe(4-F)-N-Me-Val-Tyr(3-tBu)-NHEt] (H-[NMePhe(4-F)]-[NMeV]-[Tyr(3-tBu)]-NHEt) | 1 nM
